Assay results published in patent US8497370B2, “Processes for preparing amine salts of sildenafil-analogues and use thereof” (Kaohsiung Medical University, priority 2010, dated 2013).

Tests used:
Assay type in all cases: in vivo
TGF-β = experiment: Bleomycin (BM)-induced lung fibrosis in mice, TGF-β expression in tracheal irrigation solution by EIA; details: 60 mg/kg BM inhalation, *P < 0.05 vs control group
Protocol: 3. Sildenafil-Simvastatinic Acid Complex Salts Inhibit the Lung Fibrosis in Mice Induced by Bleomycin (BM) Mediated Via TGF-β Expression in Lung The increased amount of the synthetic collagen and the generation of the macrophage in alveolus may facilitate the formulation of transforming growth factor beta (TGF-β), and the expression of TGF-β is looked as a biomarker of the lung fibrosis. The simvastatin (5 mg/kg) and Sildenafil-Simvastatinic acid complex salts (2.5 mg/kg) are orally administered to the mice for inhibiting the lung fibrosis induced by TGF-β expression in tracheal irrigation solution that resulted from 60 mg/kg BM inhalation (Table 4). The state of the TGF-β expression in the irrigation solution is measured by the enzyme immunoassay (EIA).

C57BL/6J mice = experiment: The lipid-lowering effect in C57BL/6J mice (high-fat diet); details: HFD C57BL/6J mice, after 21 days, six mice per group
Protocol: 1. The Lipid-Lowering Effect in C57BL/6J Mice
8-week C57BL/6J mice are divided into standard diet (STD) group and the high-fat diet (HFD) group. In the HFD group, the Simvastatin (5 mg/kg), Sildenafil-Atorvastatinic acid complex salt, Sildenafil-Rosuvastatinic acid complex salt, Sildenafil-Simvastatinic acid complex salt (2.5 mg/kg) are separately administered orally. After 21 days, the amounts (mg/d1) of the triglyceride (TG), the total cholesterol (Tot.-C), the high density lipoprotein cholesterol (HDL-C), and the low density lipoprotein cholesterol (LDL-C) of six mice for each group are measured as shown in Tables 2.

[1] = tested on: male Wistar rats treated with MCT; experiment: Monocrotaline (MCT)-induced pulmonary arterial hypertension in rats, pulmonary artery blood pressure; details: for PABP: MCT (60 mg, intracutaneously)-treated male Wistar rats, 2.5 mg/kg/day p.o., MCT alone 25 ± 2.3, control 11 ± 1.4; for effect on pulmonary artery blood pressure (PABP), in words: MCT-treated male Wistar rats, 2.5 mg/kg orally every day
Excerpt: 2. The Monocrotaline (MCT)-Treated Rats Show the Decreased Pulmonary Aterial Hypertension
Pulmonary aterial hypertension in MCT-treated rats is caused on day 21 after the intracutaneously injection.

| Compound | Changed amount of the lung TGF-β (TGF-β; 5 mg/kg orally) | HDL-C (C57BL/6J mice; 5 mg/kg orally) | LDL-C (C57BL/6J mice; 5 mg/kg orally) | TG (C57BL/6J mice; 5 mg/kg orally) | Tot.-C (C57BL/6J mice; 5 mg/kg orally) | HDL-C (C57BL/6J mice; 2.5 mg/kg orally) | LDL-C (C57BL/6J mice; 2.5 mg/kg orally) | TG (C57BL/6J mice; 2.5 mg/kg orally) | Tot.-C (C57BL/6J mice; 2.5 mg/kg orally) | Changed amount of the lung TGF-β (TGF-β; 2.5 mg/kg orally) | PABP [1] | effect on pulmonary artery blood pressure (PABP), in words [1] |
| --- | --- | --- | --- | --- | --- | --- | --- | --- | --- | --- | --- | --- |
| CCC(C)(C)C(=O)O[C@H]1C[C@@H](C)C=C2C=C[C@H](C)[C@H](CC[C@@H]3C[C@@H](O)CC(=O)O3)[C@H]21 [Simvastatin, reference compound] | 40 ± 4.3%* | 103.18 ± 2.5 mg/d1 | 15.3 ± 1.3 mg/d1 | 82.67 ± 6.3 mg/d1 | 133.67 ± 4.3 mg/d1 |  |  |  |  |  |  |  |
| Sildenafil-Atorvastatinic acid complex salt |  |  |  |  |  | 97.6 ± 2.8 mg/d1 | 16.8 ± 1.8 mg/d1 | 79.2 ± 4.6 mg/d1 | 130.7 ± 1.7 mg/d1 |  |  |  |
| Sildenafil-Rosuvastatinic acid complex salt |  |  |  |  |  | 103.4 ± 1.5 mg/d1 | 15.2 ± 1.7 mg/d1 | 83.2 ± 5.3 mg/d1 | 131.7 ± 1.6 mg/d1 |  |  |  |
| Sildenafil-Simvastatinic acid complex salt |  |  |  |  |  | 102.4 ± 2.3 mg/d1 | 17.3 ± 1.4 mg/d1 | 81.2 ± 4.4 mg/d1 | 129.7 ± 1.4 mg/d1 | 43 ± 1.8%* | 12 ± 1.5 mmHg | decreasing the pulmonary artery blood pressure |
| Sildenafil-γ-Polyglutamate complex |  |  |  |  |  |  |  |  |  |  | 11 ± 0.8 mmHg | decreasing the pulmonary artery blood pressure |
